Measured values reported in patent US9278958B2, “Anti-cancer compounds” (KATHOLIEKE UNIVERSITEIT LEUVEN, priority 2012, dated 2016).
Where two headings read alike, the source gives them in different places.

How the values were obtained:
CEM cells = experiment: Cytostatic assay, CEM; assay type: cell-based; details: Homo sapiens, CCRF-CEM
Method: (§1) To each well of a 96-well microtiter plate were added 5-7.5×10^4 cells and a given amount of the test compound. The cells were allowed to proliferate for 48 h to 96 h (depending on the nature of the cell line) at 37° C. in a humidified CO2-controlled atmosphere. At the end of the incubation period, the cells were counted in a Coulter Counter (Coulter Electronics Ltd, Harpenden Herts, United Kingdom).

Molt4/C8 cells = experiment: Cytostatic assay, Molt4/C8; assay type: cell-based; details: Table 2
Method: as §1

Sup T1 cells = experiment: Cytostatic assay, Sup T1; assay type: cell-based; details: Homo sapiens, Table 2, read-out: Cytostatic activity (μM) Sup T 1
Method: as §1

MT-2 cells = experiment: Cytostatic assay, MT-2; assay type: cell-based; details: Homo sapiens, MT2; Table 2
Method: as §1

C8166 cells = experiment: Cytostatic assay, C8166; assay type: cell-based; details: Homo sapiens, Table 2
Method: as §1

HUT-78 cells = experiment: Cytostatic assay, HUT-78; assay type: cell-based; details: Homo sapiens, HuT78; Table 2
Method: as §1

MT-4 cells = experiment: Cytostatic assay, MT-4; assay type: cell-based; details: Homo sapiens, MT4; Table 2
Method: as §1

[1] = system: HL60, human leukemia cells; experiment: Cytostatic assay, HL-60; assay type: cell-based; details: Table 2
Method: as §1

[2] = system: U937, human monocytic cells; experiment: Cytostatic assay, U937; assay type: cell-based; details: U-937, Table 2
Method: as §1

[3] = system: THP-1, human monocytic cells; experiment: Cytostatic assay, THP-1; assay type: cell-based; details: Table 2
Method: as §1

[4] = system: Raji, human B-lymphoma cells; experiment: Cytostatic assay, Raji; assay type: cell-based; details: Table 2
Method: as §1

L1210 cells = experiment: Cytostatic assay, L1210; assay type: cell-based; details: Mus musculus, Table 2
Method: as §1

[5] = system: OST TK- osteosarcoma cells; experiment: Cytostatic assay, OST TK-; assay type: cell-based; details: Homo sapiens; Table 3
Method: as §1

[6] = system: MCF-7 mammary carcinoma cells; experiment: Cytostatic assay, MCF-7; assay type: cell-based; details: Homo sapiens, MCF7; Table 3
Method: as §1

[7] = system: FM3A mammary carcinoma cells; experiment: Cytostatic assay, FM3A; assay type: cell-based, murine; details: Mus musculus, Table 3
Method: as §1

[8] = system: HeLa cervix carcinoma cells; experiment: Cytostatic assay, HeLa; assay type: cell-based, human; details: Homo sapiens; Table 3; read-out: Cytostatic activity (μM) Hela
Method: as §1

[9] = system: Caki-1 kidney carcinoma cells; experiment: Cytostatic assay, Caki-1; assay type: cell-based; details: Homo sapiens, Table 3
Method: as §1

[10] = system: Caki-2 kidney carcinoma cells; experiment: Cytostatic assay, Caki-2; assay type: cell-based; details: Homo sapiens, Table 3
Method: as §1

[11] = system: 293T embryonic kidney cells; experiment: Cytostatic assay, 293T; assay type: cell-based; details: Homo sapiens, HEK-293T; Table 3
Method: as §1

[12] = system: HT29 colorectal carcinoma cells; experiment: Cytostatic assay, HT29; assay type: cell-based; details: Homo sapiens, HT-29; Table 3
Method: as §1

U87 glioma cells = experiment: Cytostatic assay, U87; assay type: cell-based; details: Homo sapiens, U-87 MG; Table 3
Method: as §1

[13] = system: HEL embryonic lung fibroblast cells; experiment: Cytostatic assay, HEL; assay type: cell-based; details: Homo sapiens, Table 3
Method: as §1

[14] = system: BAEC aortic endothelial cells; experiment: Cytostatic assay, BAEC; assay type: cell-based, bovine; details: Bos taurus, Table 3
Method: as §1

[15] = system: PC3 (rega) prostate cancer cells; experiment: Cytostatic assay, PC3 (rega); assay type: cell-based; details: Table 4
Method: as §1

BPH-1 (UZ) = experiment: Cytostatic assay, BPH-1 (UZ); assay type: cell-based; details: Homo sapiens, Table 4
Method: as §1

[16] = system: DU145 (UZ) prostate cancer cells; experiment: Cytostatic assay, DU145 (UZ); assay type: cell-based; details: Homo sapiens, DU-145; Table 4
Method: as §1

[17] = system: PC-3 (UZ) prostate cancer cells; experiment: Cytostatic assay, PC-3 (UZ); assay type: cell-based; details: Table 4
Method: as §1

[18] = system: LNCaP (UZ) prostate cancer cells; experiment: Cytostatic assay, LNCaP (UZ); assay type: cell-based; details: Homo sapiens, Table 4
Method: as §1

[19] = system: PNT1A (UZ) prostate cells; experiment: Cytostatic assay, PNT1A (UZ); assay type: cell-based; details: Homo sapiens, Table 4
Method: as §1

[20] = system: 22Rv1 (UZ) prostate cancer cells; experiment: Cytostatic assay, 22Rv1 (UZ); assay type: cell-based; details: Homo sapiens, Table 4
Method: as §1

PLC/PRF/5 hepatoma cells = experiment: Cytostatic assay, PLC/PRF/5; assay type: cell-based; details: Homo sapiens, Table 4
Method: as §1

HepG2C3A hepatoma cells = experiment: Cytostatic assay, HepG2C3A; assay type: cell-based; details: Homo sapiens, HepG2/C3A; Table 4
Method: as §1

Huh-7 hepatoma cells = experiment: Cytostatic assay, Huh-7; assay type: cell-based; details: Homo sapiens, Table 4
Method: as §1

[21] = Table 1a, read-out: IC50 μM (CEM)
[22] = Table 2, read-out: Cytostatic activity (μM) CEM

IC50 (CEM cells; [21]) | IC50 (CEM cells; [22]) | IC50 (Molt4/C8 cells) | IC50 (Sup T1 cells) | IC50 (MT-2 cells) | IC50 (C8166 cells) | IC50 (HUT-78 cells) | IC50 [1] | IC50 [2] | IC50 [3] | IC50 [4] | IC50 (L1210 cells) | IC50 [5] | IC50 [6] | IC50 [7] | IC50 [8] | IC50 [9] | IC50 [10] | Structure (SMILES) | IC50 (MT-4 cells) | IC50 [11] | other results
27 µM | 27 ± 10 µM | 31 ± 2.1 µM | 28 ± 12 µM | 27 ± 4.2 µM | 133 ± 7.8 µM | 108 ± 5.7 µM | 17 ± 5.7 µM | 73 ± 3.5 µM | 25 ± 19 µM | 48 ± 13 µM | 41 ± 3 µM | 18 ± 1.4 µM | 48 ± 11 µM | 49 ± 1 µM | 40 ± 9 µM | 17 ± 3.5 µM | 17 ± 3.5 µM | CCOC(=O)c1cc(-c2ccccc2OC)sc1N [TR531, 2-Amino-5-(2-methoxy-phenyl)-thiophene-3-carboxylic acid ethyl ester] | 44 ± 5.7 µM | 58 ± 7.1 µM | IC50 [12]: 43 ± 2.8 µM; IC50 (U87 glioma cells): 38 ± 8.5 µM; IC50 [13]: 25 ± 3.5 µM; IC50 [14]: 31 ± 6.4 µM; IC50 [15]: 25 ± 6.4 µM; IC50 (BPH-1 (UZ)): 39 µM; IC50 [16]: 34 ± 4.2 µM; IC50 [17]: 28 ± 0.71 µM; IC50 [18]: 11 ± 5 µM; IC50 [19]: 45 ± 1.4 µM; IC50 [20]: 20 ± 5.1 µM; IC50 (PLC/PRF/5 hepatoma cells): 21 ± 0.71 µM; IC50 (HepG2C3A hepatoma cells): 10 ± 5.2 µM; IC50 (Huh-7 hepatoma cells): 43 ± 12 µM
55 µM | 55 µM | 39 ± 8 µM | 45 ± 31 µM | 103 ± 52 µM | 149 ± 14 µM | 152 ± 44 µM | 16 ± 3.5 µM | 82 ± 7.1 µM | 69 ± 13 µM | 59 ± 11 µM | 204 ± 85 µM | 45 ± 4.2 µM | 29 ± 20 µM | 275 ± 206 µM | 41 ± 4.9 µM | 39 ± 2.1 µM | 28 ± 18 µM | COC(=O)c1cc(-c2ccccc2OC)sc1N [TR581, 2-Amino-5-(2-methoxy-phenyl)-thiophene-3-carboxylic acid methyl ester] | 36 ± 15 µM | 72 ± 4.9 µM | IC50 [12]: 43 ± 1.4 µM; IC50 (U87 glioma cells): 42 ± 5.7 µM; IC50 [13]: 24 ± 2.1 µM; IC50 [14]: 38 ± 2.1 µM; IC50 [15]: 26 ± 8.5 µM; IC50 (BPH-1 (UZ)): 50 ± 5.7 µM; IC50 [16]: 35 ± 6.4 µM; IC50 [17]: 28 ± 4.9 µM; IC50 [18]: 9.7 ± 5.1 µM; IC50 [19]: 58 ± 13 µM; IC50 [20]: 42 ± 7.6 µM; IC50 (PLC/PRF/5 hepatoma cells): 36 ± 4.2 µM; IC50 (HepG2C3A hepatoma cells): 38 ± 27 µM; IC50 (Huh-7 hepatoma cells): 59 ± 17 µM
0.76 µM | 0.76 ± 0.48 µM | 1.1 ± 1 µM | 0.54 ± 0.007 µM | 0.7 ± 0.3 µM | 0.82 ± 0.16 µM | 0.43 ± 0.24 µM | 0.46 ± 0.35 µM | 0.92 ± 0.08 µM | 0.71 ± 0.18 µM | 1.8 ± 0.42 µM | 1.2 ± 0.4 µM | 0.51 ± 0.42 µM | 0.83 ± 0.35 µM | 2 ± 0.28 µM | 0.33 ± 0.028 µM | 1.4 ± 0.5 µM | 3.2 ± 2.4 µM | CCOC(=O)c1cc(CCc2cc(OC)ccc2OC)sc1N [TR587, 2-Amino-5-[2-(2,5-dimethoxy-phenyl)-ethyl]-thiophene-3-carboxylic acid ethyl ester] | 1.7 ± 0.59 µM | 1 ± 0.11 µM | IC50 [12]: 1.7 ± 0.14 µM; IC50 (U87 glioma cells): 1.6 ± 1.1 µM; IC50 [13]: 0.27 ± 0.22 µM; IC50 [14]: 0.93 ± 0.67 µM; IC50 [15]: 0.33 ± 0.099 µM; IC50 (BPH-1 (UZ)): 0.39 ± 0.007 µM; IC50 [16]: 1.4 ± 0.21 µM; IC50 [17]: 0.52 ± 0.007 µM; IC50 [18]: 0.35 ± 0.064 µM; IC50 [19]: 0.41 ± 0.028 µM; IC50 [20]: 0.19 ± 0.11 µM; IC50 (PLC/PRF/5 hepatoma cells): 0.26 ± 0.15 µM; IC50 (HepG2C3A hepatoma cells): 1.1 ± 0.49 µM; IC50 (Huh-7 hepatoma cells): 0.71 ± 0.35 µM
47 µM | 47 ± 25 µM | 8.5 ± 3.4 µM | > 200 µM | 6.65 ± 1.9 µM | ≥ 200 µM | 18 ± 7.1 µM | 3.9 ± 0.5 µM | 42 ± 2.1 µM | 8.4 ± 0.28 µM | 39 ± 21 µM | 40 ± 6 µM | 27 ± 18 µM | 26 ± 2.1 µM | 67 ± 23 µM | 27 ± 28 µM | 1.3 ± 0.4 µM | 78 ± 69 µM | N#Cc1cc(CCc2ccccc2)sc1N [TR588, 2-Amino-5-phenethyl-thiophene-3-carbonitrile] | 75 ± 35 µM | 34 ± 14 µM | IC50 [12]: 66 ± 6.4 µM; IC50 (U87 glioma cells): 46 ± 7.8 µM; IC50 [13]: 30 ± 6.4 µM; IC50 [14]: 45 ± 4.9 µM; IC50 [15]: 3.1 ± 1.2 µM; IC50 (BPH-1 (UZ)): ≥ 100 µM; IC50 [16]: 24 ± 4.9 µM; IC50 [17]: 11 ± 4.2 µM; IC50 [18]: 5.3 ± 4.3 µM; IC50 [19]: 66 ± 31 µM; IC50 [20]: 61 ± 34 µM; IC50 (PLC/PRF/5 hepatoma cells): 41 ± 3.5 µM; IC50 (HepG2C3A hepatoma cells): 64 ± 52 µM; IC50 (Huh-7 hepatoma cells): 21 ± 7.1 µM
